Source: patent US20080227635A1, “Dicyano Alkanoic Acid Amides for Combating Animal Pests” (BASF Aktiengesellschaft, priority 2005, published 2008)

Experiments:
Type in all cases: in vivo
[1] = system: yellowfever mosquito (Aedes aegyptii); assay: Activity via glass contact (treated glass vials); conditions: 10 ppm in acetone, 0.5 ml per glass vial, 22° C., untreated controls 0%
Source text: 9. Activity against Argentine ant (Linepithema humile), harvester ant (Pogonomyrmex californicus), acrobat ant (Crematogaster spp.), carpenter ant (Camponotus floridanus), fire ant (Solenopsis invicta), house fly (Musca domestica), stable fly (Stomoxys calcitrans), flesh fly (Sarcophaga sp.), yellowfever mosquito (Aedes aegyptii), house mosquito (Culex quinquefasciatus), malaria mosquito (Anopheles albimanus), German cockroach (Blattella Germanica), cat flea (Ctenocephalides felis), and brown dog tick (Rhipicephalus sanguineus) via glass contact
Glass vials were treated with 0.5 ml of a solution of 10 ppm of the active ingredient in acetone and allowed to dry. Insects or ticks were placed into each vial together with some food and moisture supply.

[2] = system: Boll weevil (Anthonomus grandis); assay: Activity against Boll weevil (eggs sprayed in microtiterplates); conditions: 2500 ppm solution in 1:3 DMSO:water, eggs sprayed with 20 μl, 3 to 5 days, untreated controls 0%
Protocol: 1. Activity against Boll weevil (Anthonomus grandis)
The active compounds were formulated as a 2500 ppm solution in 1:3 DMSO:water. 10 to 15 eggs were placed into microtiterplates filled with 2% agar-agar in water and 300 ppm formaline. The eggs were sprayed with 20 μl of the test solution, the plates were sealed with pierced foils and kept at 24-26° C. and 75-85% humidity with a day/night cycle for 3 to 5 days. Mortality was assessed on the basis of the remaining unhatched eggs or larvae on the agar surface and/or quantity and depth of the digging channels caused by the hatched larvae. Tests were replicated 2 times.

[3] = system: Vetch aphid (Megoura viciae); assay: Activity against Vetch aphid (sprayed bean leaf disks); conditions: foliar, 144 h, 2500 ppm solution in 1:3 DMSO:water, leaf disks sprayed with 2.5 μl, adult aphids, 6 days, untreated controls 0%
Protocol: 4. Activity against Vetch aphid (Megoura viciae)
The active compounds were formulated as a 2500 ppm solution in 1:3 DMSO:water. Bean leaf disks were placed into microtiterplates filled with 0.8% agar-agar and 2.5 ppm OPUS™. The leaf disks were sprayed with 2.5 μl of the test solution and 5 to 8 adult aphids were placed into the microtiterplates which were then closed and kept at 22-24° C. and 35-45% under fluorescent light for 6 days. Mortality was assessed on the basis of vital, reproduced aphids. Tests were replicated 2 times.

SMILES	mortality at 10 ppm [1] [%]	mortality at 2500 ppm [2] [%]	mortality at 2500 ppm [3] [%]
CN(C(=O)CC(C#N)(C#N)CCC(F)(F)F)C(C)(C)C#N [I-2, 3,3-dicyano-6,6,6-trifluoro-hexanoic acid (cyano-dimethyl-methyl)-methyl-amide]	> 75		
CN(C(=O)CC(C#N)(C#N)CCC(F)(F)F)C(C)(C)C [I-1, 3,3-dicyano-6,6,6-trifluoro-hexanoic acid tert-butyl-methyl-amide]		> 75	> 75
